Experimental data from US8258140B2 (Astrazeneca AB, priority 2009, dated 2012).

Molecular target: T1, Androgen Receptor (AR) in the LNCaP prostate carcinoma cell line (Homo sapiens, UniProt P10275, T878A)
T1 construct: cell based immuno-fluorescence assay using the LNCaP prostate epithelial cell line; host or cells: LNCaP clone FGC
T1 sequence (P10275 1-920 T878A): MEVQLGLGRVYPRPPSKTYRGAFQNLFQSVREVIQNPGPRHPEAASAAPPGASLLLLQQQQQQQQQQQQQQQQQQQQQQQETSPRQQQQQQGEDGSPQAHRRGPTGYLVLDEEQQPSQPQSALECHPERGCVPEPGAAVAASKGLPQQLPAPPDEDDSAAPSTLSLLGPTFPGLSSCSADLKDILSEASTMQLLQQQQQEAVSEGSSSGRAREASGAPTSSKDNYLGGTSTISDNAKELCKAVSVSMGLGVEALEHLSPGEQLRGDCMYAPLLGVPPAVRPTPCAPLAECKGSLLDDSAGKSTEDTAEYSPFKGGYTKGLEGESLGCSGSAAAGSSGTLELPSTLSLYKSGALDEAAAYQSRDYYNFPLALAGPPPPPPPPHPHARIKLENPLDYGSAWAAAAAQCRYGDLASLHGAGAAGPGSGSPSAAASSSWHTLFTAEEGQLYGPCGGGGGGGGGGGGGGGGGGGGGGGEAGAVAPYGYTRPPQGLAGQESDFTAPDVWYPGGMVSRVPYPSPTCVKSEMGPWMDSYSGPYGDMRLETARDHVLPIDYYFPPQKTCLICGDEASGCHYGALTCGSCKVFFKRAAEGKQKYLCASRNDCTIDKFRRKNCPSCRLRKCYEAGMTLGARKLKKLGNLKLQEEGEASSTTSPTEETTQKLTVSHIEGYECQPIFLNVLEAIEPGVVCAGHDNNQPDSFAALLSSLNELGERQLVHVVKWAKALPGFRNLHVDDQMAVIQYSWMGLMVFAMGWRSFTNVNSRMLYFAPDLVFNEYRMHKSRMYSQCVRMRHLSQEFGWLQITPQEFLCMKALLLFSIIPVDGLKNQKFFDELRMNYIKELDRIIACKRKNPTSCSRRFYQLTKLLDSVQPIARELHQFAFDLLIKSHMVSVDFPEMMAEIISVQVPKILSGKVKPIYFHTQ
Assay: LNCaP Androgen Receptor Down-Regulation Cell Assay (immunofluorescence end point)
Assay type: cell-based
Conditions: LNCaP cells, compound incubation 20-22 hours, concentration giving 50% reduction of the AR signal
Description: The ability of compounds to reduce Androgen Receptor (AR) numbers was assessed in a cell based immuno-fluorescence assay using the LNCaP prostate epithelial cell line.
This immunofluorescence end point assay measures the ability of a test compound to down-regulate and reduce measured levels of the AR in the LNCaP prostate carcinoma cell line (LNCaP clone FGC (CRL-1740) obtained from the American Type Culture Collection (ATCC)).
LNCaP cells were cultured in Growth Medium (phenol red free Roswell Park Memorial Institute (RPMI) 1640 (Invitrogen Code no. 11835-063) containing 2 mM L-Glutamine (Invitrogen Code no. 25030-024) and 1% (v/v) Penicillin/Streptomycin (10000 units/ml Penicillin and 10000 μg/ml of Streptomycin utilising penicillin G (sodium salt) and streptomycin sulphate: prepared in normal saline, Invitrogen Code no. 15140122) and 10% (v/v) foetal bovine serum (FBS)) in a 5% CO2 air incubator at 37° C. Cells for assay were harvested from T175 stock flasks by washing once in PBS (phosphate buffered saline, pH 7.4) (Invitrogen Code no. 14190-094) and harvested using 5 mls of 1× Trypsin/ethylaminediaminetetraacetic acid (EDTA) (10× Trypsin-EDTA, 5.0 g/L Trypsin, 2.0 g/L of EDTA.4Na and 8.5 g/L of NaCl, without Phenol Red, Invitrogen Code no. 15400-054) diluted in PBS solution. A 5 ml volume of Growth Medium was added to each flask (as above except that 5% (v/v) charcoal stripped FBS (HyClone Code no. SH30068.03) was included instead of 10% (v/v) FBS). Cells were syringed at least twice using a sterile 18 G×1.5″ (1.2×40 mm) broad gauge needle and cell density was measured using a haemocytometer. Cells were further diluted in Growth Medium plus 5% (v/v) charcoal stripped FBS and seeded at a density of 6.5×10^3 cells per well (in 90 ul) into transparent, black, tissue culture treated 96 well plates (Packard, No. 6005182).
Test data reported herein was generated using two different compounds preparation and dosing methods. In method (1) a 10 mM compound stock solution in 100% (v/v) DMSO was serially diluted in 4-fold steps in 100% (v/v) DMSO using a Thermo Scientific Matrix SerialMate. The diluted compounds were then further diluted 1 in 30 in assay media using a Thermo Scientific Matrix PlateMate and a 10 μl aliquot of this dilution was dosed to cells manually using a multi-channel pipette. In method (2) starting with a 10 mM compound stock solution, the Labcyte Echo 550 was used to generate a compound concentration response set diluted in 30 μl of assay media. The Echo 550 is a liquid handler that uses acoustic technology to perform direct microplate-to-microplate transfers of DMSO compound solutions. The system can be programmed to transfer volumes as low as 2.5 nL in multiple increments between microplates and in so doing generates a serial dilution of compound which is then back-filled to normalise the DMSO concentration across the dilution range. A 10 μl volume of diluted compound is then dosed to cells using a Thermo Scientific Matrix PlateMate.
Plates were incubated overnight at 37° C., 5% CO2. Wells were then dosed with compound prepared by one of the 2 methods above and further incubated for 20-22 hours at 37° C., 5% CO2. Plates were fixed by the addition of 20 μl of 10% (v/v) formaldehyde solution (in PBS) to each well (final formaldehyde conc.=1.67% (v/v)) and left at room temperature for 10 mins. This fixative solution was removed and cells were washed with 250 μl of PBS/0.05% (v/v) Tween 20 (PBST) using an automated plate washer. This process was then repeated twice more.
Immunostaining was performed at room temperature. Cells were permeabilised by the addition of 35 μl of PBS containing 0.5% Tween 20 and incubated for 1 hour at room temperature. Permeabilisation solution was removed and cells were washed with 250 μl of PBST using an automated plate washer. This process was then repeated twice more. […]

**Q.** Cn1nccc1CCOc1ccc(C2CCN(C3=Nn4c(nnc4C(F)(F)F)CC3)CC2)cc1 [Example 15, 6-[4-[4-[2-(1-methyl-1H-pyrazol-5-yl)ethoxy]phenyl]piperidin-1-yl]-3-(trifluoromethyl)-7,8-dihydro[1,2,4]triazolo[4,3-b]pyridazine] was tested. Which IC50 did it give?
**A.** 0.94 µM

**Q.** FC(F)(F)c1nnc2n1N=C(N1CCC(c3c[nH]c4ncccc34)CC1)CC2 [Example 18, 6-[4-(1H-pyrrolo[2,3-b]pyridin-3-yl)piperidin-1-yl]-3-(trifluoromethyl)-7,8-dihydro[1,2,4]triazolo[4,3-b]pyridazine] was tested. Which IC50 did it give?
**A.** 3.2 µM

**Q.** For CC(=O)N1CCN(CCOc2ccc(N3CCN(C4=Nn5c(nnc5C(F)(F)F)CC4)CC3)cc2)CC1 [Example 32, 6-(4-{4-[2-(4-acetylpiperazin-1-yl)ethoxy]phenyl}piperazin-1-yl)-3-(trifluoromethyl)-7,8-dihydro[1,2,4]triazolo[4,3-b]pyridazine], which IC50 is on record?
**A.** 20 µM

**Q.** Which IC50 does the source give for C[C@H]1C(=O)N(C)CCN1CCOc1ccc(C2CCN(C3=Nn4c(nnc4C(F)(F)F)CC3)CC2)cc1 [Example 50, (3S)-1,3-dimethyl-4-[2-(4-{1-[3-(trifluoromethyl)-7,8-dihydro[1,2,4]triazolo[4,3-b]pyridazin-6-yl]piperidin-4-yl}phenoxy)ethyl]piperazin-2-one] here?
**A.** 0.76 µM

**Q.** FC(F)(F)CCCOc1ccc(C2CCN(C3=Nn4c(nnc4C(F)(F)F)CC3)CC2)cc1 [Example 35, 6-{4-[4-(4,4,4-trifluorobutoxy)phenyl]piperidin-1-yl}-3-(trifluoromethyl)-7,8-dihydro[1,2,4]triazolo[4,3-b]pyridazine] was tested. Which IC50 did it give?
**A.** 2.3 µM

**Q.** For CS(=O)(=O)N1CCN(CCOc2ccc(C3CCN(C4=Nn5c(nnc5C(F)(F)F)CC4)CC3)cc2)CC1 [Example 26, 6-[4-(4-{2-[4-(methylsulfonyl)piperazin-1-yl]ethoxy}phenyl)piperidin-1-yl]-3-(trifluoromethyl)-7,8-dihydro[1,2,4]triazolo[4,3-b]pyridazine], which IC50 is on record?
**A.** 1.5 µM

**Q.** With C[C@H](COc1ccc(C2CCN(C3=Nn4c(nnc4C(F)(F)F)CC3)CC2)cc1)N1CCN(C)C(=O)C1 (single isomer, unassigned) [Example 56] as the compound, how does the IC50 read?
**A.** 0.38 µM

**Q.** Which IC50 does the source give for OC1(c2ccc(F)cc2)CCN(C2=Nn3c(nnc3C(F)(F)F)CC2)CC1 [Example 14, 4-(4-fluorophenyl)-1-[3-(trifluoromethyl)-7,8-dihydro[1,2,4]triazolo[4,3-b]pyridazin-6-yl]piperidin-4-ol] here?
**A.** > 15 µM

**Q.** For CCCCC(=O)N1CCN(CCCOc2ccc(N3CCN(C4=Nn5c(nnc5C(F)(F)F)CC4)CC3)cc2)CC1 [Example 30, 6-(4-{4-[3-(4-pentanoylpiperazin-1-yl)propoxy]phenyl}piperazin-1-yl)-3-(trifluoromethyl)-7,8-dihydro[1,2,4]triazolo[4,3-b]pyridazine], which IC50 is on record?
**A.** 6.7 µM

**Q.** CN(C)C(=O)COc1ccc(C2CCN(C3=Nn4c(nnc4C(F)(F)F)CC3)CC2)cc1 [Example 20, N,N-dimethyl-2-(4-{1-[3-(trifluoromethyl)-7,8-dihydro[1,2,4]triazolo[4,3-b]pyridazin-6-yl]piperidin-4-yl}phenoxy)acetamide] was tested. Which IC50 did it give?
**A.** 4.1 µM

**Q.** Which IC50 does the source give for CC(=O)N1CCN(CCCOc2ccc(N3CCN(C4=Nn5c(nnc5C(F)(F)F)CC4)CC3)cc2)CC1 [Example 29, 6-(4-{4-[3-(4-acetylpiperazin-1-yl)propoxy]phenyl}piperazin-1-yl)-3-(trifluoromethyl)-7,8-dihydro[1,2,4]triazolo[4,3-b]pyridazine] here?
**A.** 10 µM

**Q.** How did the IC50 turn out when CN(CCO)C(=O)CCCOc1ccc(C2CCN(C3=Nn4c(nnc4C(F)(F)F)CC3)CC2)cc1 [Example 24] was run?
**A.** 2.5 µM

**Q.** Which IC50 does the source give for Cc1cc(C)n(CCOc2ccc(C3CCN(C4=Nn5c(nnc5C(F)(F)F)CC4)CC3)cc2)n1 [Example 43, 6-(4-{4-[2-(3,5-dimethyl-1H-pyrazol-1-yl)ethoxy]phenyl}piperidin-1-yl)-3-(trifluoromethyl)-7,8-dihydro[1,2,4]triazolo[4,3-b]pyridazine] here?
**A.** 1 µM

**Q.** Which IC50 does the source give for CS(=O)(=O)N1CCN(CCCOc2ccc(N3CCN(C4=Nn5c(nnc5C(F)(F)F)CC4)CC3)cc2)CC1 [Example 31] here?
**A.** 18 µM

**Q.** FC(F)(F)c1ccn(CCOc2ccc(C3CCN(C4=Nn5c(nnc5C(F)(F)F)CC4)CC3)cc2)n1 [Example 44, 3-(trifluoromethyl)-6-[4-(4-{2-[3-(trifluoromethyl)-1H-pyrazol-1-yl]ethoxy}phenyl)piperidin-1-yl]-7,8-dihydro[1,2,4]triazolo[4,3-b]pyridazine] was tested. Which IC50 did it give?
**A.** 0.55 µM

**Q.** FC(F)(F)c1ccn(CCOc2ccc(N3CCN(C4=Nn5c(nnc5C(F)(F)F)CC4)CC3)cc2)n1 [Example 40, 3-(trifluoromethyl)-6-[4-(4-{2-[3-(trifluoromethyl)-1H-pyrazol-1-yl]ethoxy}phenyl)piperazin-1-yl]-7,8-dihydro[1,2,4]triazolo[4,3-b]pyridazine] was tested. Which IC50 did it give?
**A.** 1.5 µM

**Q.** For CS(=O)(=O)N1CCN(CCOc2ccc(N3CCN(C4=Nn5c(nnc5C(F)(F)F)CC4)CC3)cc2)CC1 [Example 34, 6-[4-(4-{2-[4-(methylsulfonyl)piperazin-1-yl]ethoxy}phenyl)piperazin-1-yl]-3-(trifluoromethyl)-7,8-dihydro[1,2,4]triazolo[4,3-b]pyridazine], which IC50 is on record?
**A.** 23 µM

**Q.** Which IC50 does the source give for CCc1nccn1CCOc1ccc(N2CCN(C3=Nn4c(nnc4C(F)(F)F)CC3)CC2)cc1 [Example 39, 6-(4-{4-[2-(2-ethyl-1H-imidazol-1-yl)ethoxy]phenyl}piperazin-1-yl)-3-(trifluoromethyl)-7,8-dihydro[1,2,4]triazolo[4,3-b]pyridazine] here?
**A.** 4.8 µM

**Q.** How did the IC50 turn out when O=C1CN(CCOc2ccc(C3CCN(C4=Nn5c(nnc5C(F)(F)F)CC4)CC3)cc2)CCN1C1CC1 [Example 47, 1-cyclopropyl-4-[2-(4-{1-[3-(trifluoromethyl)-7,8-dihydro[1,2,4]triazolo[4,3-b]pyridazin-6-yl]piperidin-4-yl}phenoxy)ethyl]piperazin-2-one] was run?
**A.** 1.4 µM

**Q.** With FC(F)(F)c1nnc2n1N=C(N1CC=C(c3c[nH]c4ncccc34)CC1)CC2 [Example 17, 6-[4-(1H-pyrrolo[2,3-b]pyridin-3-yl)-3,6-dihydropyridin-1(2H)-yl]-3-(trifluoromethyl)-7,8-dihydro[1,2,4]triazolo[4,3-b]pyridazine] as the compound, how does the IC50 read?
**A.** 4.4 µM
